Assays:
[1] = target: T1, SpF6H1 (Salvia plebeia, UniProt A0AA49X7K6); assay: HPLC-DAD / UPLC-Q-TOF-MS product detection; assay type: biochemical; details: 1 mM NADPH, 0.5 mM GSH, 100 mM Tris-HCl, 28 °C, 12 h; AtCPR co-expressed; product scutellarein
T1 construct: gene F6H1; ORF in pET32a (Trx/His tag), E. coli; co-expressed with AtCPR; with NADPH--cytochrome P450 reductase (Arabidopsis thaliana)
T1 sequence (A0AA49X7K6 1-521): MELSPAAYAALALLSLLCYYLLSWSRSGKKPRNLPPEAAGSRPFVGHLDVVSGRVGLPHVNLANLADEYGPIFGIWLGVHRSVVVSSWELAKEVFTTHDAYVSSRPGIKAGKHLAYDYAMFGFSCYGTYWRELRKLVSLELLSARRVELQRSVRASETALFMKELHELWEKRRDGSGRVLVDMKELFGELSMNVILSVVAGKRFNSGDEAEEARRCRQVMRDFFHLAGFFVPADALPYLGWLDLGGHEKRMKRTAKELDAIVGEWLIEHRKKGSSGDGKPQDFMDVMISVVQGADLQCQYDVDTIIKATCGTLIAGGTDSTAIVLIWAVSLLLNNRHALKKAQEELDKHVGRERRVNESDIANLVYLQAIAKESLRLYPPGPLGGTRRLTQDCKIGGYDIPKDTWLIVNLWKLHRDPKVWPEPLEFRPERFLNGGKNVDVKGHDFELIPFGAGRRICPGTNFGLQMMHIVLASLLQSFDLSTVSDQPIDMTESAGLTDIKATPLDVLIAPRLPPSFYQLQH

[2] = target: T2, SpUGT3 (Salvia plebeia, UniProt A0AA49X848); assay: HPLC-DAD / UPLC-Q-TOF-MS product detection; assay type: biochemical; details: 1 mM UDP-glucose, 50 mM PBS, 30 °C, 4 h; product homoplantaginin
T2 construct: gene UGT3; ORF in pSJ8-MBP (MBP fusion), E. coli BL21(DE3), Ni-NTA purified
T2 sequence (A0AA49X848 1-469): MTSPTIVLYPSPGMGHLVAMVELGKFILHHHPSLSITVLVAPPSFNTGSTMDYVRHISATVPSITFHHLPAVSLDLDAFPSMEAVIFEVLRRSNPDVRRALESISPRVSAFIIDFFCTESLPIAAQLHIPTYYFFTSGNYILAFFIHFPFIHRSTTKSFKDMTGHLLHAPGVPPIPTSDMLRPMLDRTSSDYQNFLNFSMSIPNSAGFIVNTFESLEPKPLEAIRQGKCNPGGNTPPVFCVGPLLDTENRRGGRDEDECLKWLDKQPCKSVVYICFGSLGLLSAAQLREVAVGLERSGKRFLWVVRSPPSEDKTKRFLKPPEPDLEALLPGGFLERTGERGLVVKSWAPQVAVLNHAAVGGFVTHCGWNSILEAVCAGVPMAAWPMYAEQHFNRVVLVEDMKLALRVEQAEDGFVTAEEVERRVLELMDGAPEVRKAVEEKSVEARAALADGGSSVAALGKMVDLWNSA

[3] = target: T3, SpUGT1 (Salvia plebeia, UniProt A0AA49X7M2); assay: HPLC-DAD / UPLC-Q-TOF-MS product detection; assay type: biochemical; details: 1 mM UDP-glucose, 50 mM PBS, 30 °C, 4 h; product homoplantaginin
T3 construct: gene UGT1; ORF in pSJ8-MBP (MBP fusion), E. coli BL21(DE3), Ni-NTA purified
T3 sequence (A0AA49X7M2 1-450): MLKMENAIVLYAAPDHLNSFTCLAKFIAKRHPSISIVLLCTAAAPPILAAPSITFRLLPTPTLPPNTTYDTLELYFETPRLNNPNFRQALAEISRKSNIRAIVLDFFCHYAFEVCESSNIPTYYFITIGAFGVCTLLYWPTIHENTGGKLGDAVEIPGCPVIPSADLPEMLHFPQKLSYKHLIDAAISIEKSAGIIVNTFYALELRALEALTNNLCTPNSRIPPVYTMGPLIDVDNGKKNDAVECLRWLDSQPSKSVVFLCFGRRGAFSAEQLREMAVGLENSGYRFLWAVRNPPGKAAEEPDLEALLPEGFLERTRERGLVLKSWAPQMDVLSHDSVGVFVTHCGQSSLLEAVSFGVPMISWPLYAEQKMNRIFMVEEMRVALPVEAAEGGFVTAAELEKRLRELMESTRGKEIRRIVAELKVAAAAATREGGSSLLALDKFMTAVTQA

[4] = target: T4, SpUGT2 (Salvia plebeia, UniProt A0AA49XCW5); assay: HPLC-DAD / UPLC-Q-TOF-MS product detection; assay type: biochemical; details: 1 mM UDP-glucose, 50 mM PBS, 30 °C, 4 h; product homoplantaginin
T4 construct: gene UGT2; ORF in pSJ8-MBP (MBP fusion), E. coli BL21(DE3), Ni-NTA purified
T4 sequence (A0AA49XCW5 1-478): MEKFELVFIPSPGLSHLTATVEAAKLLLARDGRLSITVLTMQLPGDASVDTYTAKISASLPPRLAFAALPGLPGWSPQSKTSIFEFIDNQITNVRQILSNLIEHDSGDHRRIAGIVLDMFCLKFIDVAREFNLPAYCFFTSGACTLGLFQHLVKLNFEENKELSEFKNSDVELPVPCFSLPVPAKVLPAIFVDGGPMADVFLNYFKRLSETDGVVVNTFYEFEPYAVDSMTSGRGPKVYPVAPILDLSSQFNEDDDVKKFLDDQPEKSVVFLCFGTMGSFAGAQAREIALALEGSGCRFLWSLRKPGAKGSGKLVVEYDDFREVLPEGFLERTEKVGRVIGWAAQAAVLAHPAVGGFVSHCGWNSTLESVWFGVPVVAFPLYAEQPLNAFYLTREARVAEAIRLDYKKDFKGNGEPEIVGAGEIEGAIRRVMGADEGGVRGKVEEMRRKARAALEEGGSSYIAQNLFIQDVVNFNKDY

[5] = target: T5, SpCHS1 (Salvia plebeia, UniProt A0AA50A905); assay: HPLC-DAD / UPLC-Q-TOF-MS of E. coli culture extract; assay type: cell-based; details: substrate formed in situ by co-expressed RtTAL and Pt4CL from fed tyrosine; product naringenin chalcone
T5 construct: gene CHS1; ORF in pET28a, co-expressed in E. coli with RtTAL and Pt4CL (substrate supply)
T5 sequence (A0AA50A905 1-390): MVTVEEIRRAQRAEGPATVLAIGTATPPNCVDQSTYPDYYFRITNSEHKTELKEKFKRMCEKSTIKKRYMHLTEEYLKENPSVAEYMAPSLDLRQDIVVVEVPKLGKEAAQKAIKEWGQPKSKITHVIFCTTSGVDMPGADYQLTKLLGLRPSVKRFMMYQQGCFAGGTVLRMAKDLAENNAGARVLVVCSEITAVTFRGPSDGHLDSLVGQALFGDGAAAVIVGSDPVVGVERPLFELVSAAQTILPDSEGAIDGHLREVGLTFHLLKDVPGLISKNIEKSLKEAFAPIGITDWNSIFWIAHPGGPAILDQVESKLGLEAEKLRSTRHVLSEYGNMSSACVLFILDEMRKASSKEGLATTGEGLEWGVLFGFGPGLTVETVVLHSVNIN

[6] = target: T6, SpCHI (Salvia plebeia, UniProt A0AA49X7E2); assay: HPLC-DAD / UPLC-Q-TOF-MS product detection; assay type: biochemical; details: 100 mM PBS, 25 °C, 2 s; product naringenin
T6 construct: gene CHI; full ORF in pET28a (His tag), E. coli BL21(DE3), Ni-NTA purified
T6 sequence (A0AA49X7E2 1-225): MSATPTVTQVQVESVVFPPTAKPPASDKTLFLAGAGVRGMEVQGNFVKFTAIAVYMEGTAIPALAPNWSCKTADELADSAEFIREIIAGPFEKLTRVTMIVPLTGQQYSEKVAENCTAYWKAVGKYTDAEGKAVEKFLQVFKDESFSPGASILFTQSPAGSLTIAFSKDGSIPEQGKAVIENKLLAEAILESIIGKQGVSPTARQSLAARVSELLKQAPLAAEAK

[7] = target: T7, SpFNS (Salvia plebeia, UniProt A0AA49X7D7); assay: HPLC-DAD / UPLC-Q-TOF-MS product detection; assay type: biochemical; details: 1 mM NADPH, 0.5 mM GSH, 100 mM Tris-HCl, 28 °C, 12 h; AtCPR co-expressed; product apigenin
T7 construct: gene FNS

[8] = target: T8, SpC4H (Salvia plebeia, UniProt A0AA50AF12); assay: HPLC-DAD / UPLC-Q-TOF-MS product detection; assay type: biochemical; details: 1 mM NADPH, 0.5 mM GSH, AtCPR added, 100 mM Tris-HCl, 28 °C, 12 h; product 4-coumaric acid
T8 construct: gene C4H; ORF in pET32a (Trx/His tag), E. coli BL21(DE3), Ni-NTA purified; AtCPR added; with NADPH--cytochrome P450 reductase (Arabidopsis thaliana)

[9] = target: T9, SpPAL (Salvia plebeia, UniProt A0AA50AET4); assay: HPLC-DAD / UPLC-Q-TOF-MS product detection; assay type: biochemical; details: 100 mM Tris-HCl, 37 °C, 8 h; product cinnamic acid
T9 construct: gene PAL; full ORF in pET28a (His tag), E. coli BL21(DE3), Ni-NTA purified

[10] = target: T10, SpF6OMT2 (Salvia plebeia, UniProt A0AA49X7F5); assay: HPLC-DAD / UPLC-Q-TOF-MS product detection; assay type: biochemical; details: 1 mM SAM, 1 mM MgCl2, 1 mM DTT, 100 mM Tris-HCl, 28 °C, 12 h; product hispidulin
T10 construct: gene F6OMT2; full ORF in pET28a (His tag), E. coli BL21(DE3), Ni-NTA purified

[11] = target: T11, SpF6OMT1 (Salvia plebeia, UniProt A0AA49X7D9); assay: HPLC-DAD / UPLC-Q-TOF-MS product detection; assay type: biochemical; details: 1 mM SAM, 1 mM MgCl2, 1 mM DTT, 100 mM Tris-HCl, 28 °C, 12 h; product hispidulin
T11 construct: gene F6OMT1; full ORF in pET28a (His tag), E. coli BL21(DE3), Ni-NTA purified
T11 sequence (A0AA49X7D9 1-222): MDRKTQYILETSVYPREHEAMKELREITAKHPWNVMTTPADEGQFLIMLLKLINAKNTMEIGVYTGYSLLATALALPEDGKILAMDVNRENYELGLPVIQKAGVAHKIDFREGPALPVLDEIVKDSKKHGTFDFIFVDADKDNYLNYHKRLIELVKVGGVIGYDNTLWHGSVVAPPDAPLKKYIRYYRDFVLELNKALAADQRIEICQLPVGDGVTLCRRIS

T7 sequence (A0AA49X7D7 1-507): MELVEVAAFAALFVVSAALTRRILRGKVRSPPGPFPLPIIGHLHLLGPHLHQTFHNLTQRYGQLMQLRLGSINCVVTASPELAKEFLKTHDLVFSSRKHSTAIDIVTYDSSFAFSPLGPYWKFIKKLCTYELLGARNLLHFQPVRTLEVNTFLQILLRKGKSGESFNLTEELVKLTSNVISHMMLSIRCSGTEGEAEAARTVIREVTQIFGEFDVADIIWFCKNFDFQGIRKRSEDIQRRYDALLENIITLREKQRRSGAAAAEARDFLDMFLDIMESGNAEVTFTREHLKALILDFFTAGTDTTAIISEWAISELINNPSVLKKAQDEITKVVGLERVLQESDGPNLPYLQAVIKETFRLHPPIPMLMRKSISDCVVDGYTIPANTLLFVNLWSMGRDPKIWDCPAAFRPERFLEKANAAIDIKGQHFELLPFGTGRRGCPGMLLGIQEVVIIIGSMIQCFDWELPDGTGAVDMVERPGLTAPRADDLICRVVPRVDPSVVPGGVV
T10 sequence (A0AA49X7F5 1-247): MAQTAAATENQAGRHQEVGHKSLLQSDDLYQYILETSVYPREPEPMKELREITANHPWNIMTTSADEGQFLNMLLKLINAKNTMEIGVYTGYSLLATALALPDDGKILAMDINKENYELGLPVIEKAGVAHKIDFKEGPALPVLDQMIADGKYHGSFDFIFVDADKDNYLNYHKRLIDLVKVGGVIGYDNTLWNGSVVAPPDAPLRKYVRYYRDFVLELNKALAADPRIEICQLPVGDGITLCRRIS
T9 sequence (A0AA50AET4 1-710): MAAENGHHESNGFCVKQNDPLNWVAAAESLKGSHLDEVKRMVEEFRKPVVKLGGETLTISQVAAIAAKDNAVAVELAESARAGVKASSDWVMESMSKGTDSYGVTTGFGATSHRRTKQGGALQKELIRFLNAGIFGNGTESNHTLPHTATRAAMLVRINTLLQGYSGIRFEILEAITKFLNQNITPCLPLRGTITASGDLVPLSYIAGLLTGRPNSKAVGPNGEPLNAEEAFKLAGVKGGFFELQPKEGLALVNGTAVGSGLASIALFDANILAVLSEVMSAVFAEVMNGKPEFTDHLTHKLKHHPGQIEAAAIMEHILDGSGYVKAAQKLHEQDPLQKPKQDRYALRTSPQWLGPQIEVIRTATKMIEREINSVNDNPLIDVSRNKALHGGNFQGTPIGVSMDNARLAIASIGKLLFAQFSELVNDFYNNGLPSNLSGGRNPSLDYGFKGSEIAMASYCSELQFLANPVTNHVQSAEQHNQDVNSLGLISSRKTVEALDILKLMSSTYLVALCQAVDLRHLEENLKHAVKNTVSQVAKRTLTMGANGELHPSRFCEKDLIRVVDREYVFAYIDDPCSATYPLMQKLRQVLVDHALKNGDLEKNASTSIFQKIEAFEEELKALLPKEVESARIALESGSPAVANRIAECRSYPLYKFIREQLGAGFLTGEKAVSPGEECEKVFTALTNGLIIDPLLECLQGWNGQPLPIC
T8 sequence (A0AA50AF12 entry or part of it): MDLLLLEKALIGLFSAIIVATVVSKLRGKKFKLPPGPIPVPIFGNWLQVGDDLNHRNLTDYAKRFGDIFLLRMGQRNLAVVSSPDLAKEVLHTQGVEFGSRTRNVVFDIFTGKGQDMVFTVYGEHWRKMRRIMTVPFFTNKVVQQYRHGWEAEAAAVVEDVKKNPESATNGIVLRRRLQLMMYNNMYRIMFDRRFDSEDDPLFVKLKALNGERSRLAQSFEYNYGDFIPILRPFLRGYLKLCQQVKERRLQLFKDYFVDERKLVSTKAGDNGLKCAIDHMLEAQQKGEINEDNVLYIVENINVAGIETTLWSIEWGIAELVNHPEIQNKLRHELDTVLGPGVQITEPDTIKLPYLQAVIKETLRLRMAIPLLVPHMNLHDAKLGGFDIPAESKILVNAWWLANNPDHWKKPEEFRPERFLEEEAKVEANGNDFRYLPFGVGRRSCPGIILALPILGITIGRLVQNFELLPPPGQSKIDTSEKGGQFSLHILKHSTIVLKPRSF

SMILES: O=c1cc(-c2ccc(O)cc2)oc2cc(O)cc(O)c12 [AG, apigenin]
- HPLC-DAD / UPLC-Q-TOF-MS product detection [1]: SpF6H1 produced scutellarein from apigenin, a precursor of hispidulin

SMILES: COc1c(O)cc2oc(-c3ccc(O)cc3)cc(=O)c2c1O [HD, hispidulin]
- HPLC-DAD / UPLC-Q-TOF-MS product detection [2]: SpUGT1, SpUGT2, and SpUGT3 produced homoplantaginin from hispidulin in vitro
- HPLC-DAD / UPLC-Q-TOF-MS product detection [3]: SpUGT1, SpUGT2, and SpUGT3 produced homoplantaginin from hispidulin in vitro
- HPLC-DAD / UPLC-Q-TOF-MS product detection [4]: SpUGT1, SpUGT2, and SpUGT3 produced homoplantaginin from hispidulin in vitro

SMILES: CC(C)(COP(=O)(O)OP(=O)(O)OC[C@H]1O[C@@H](n2cnc3c(N)ncnc32)[C@H](O)[C@@H]1OP(=O)(O)O)[C@@H](O)C(=O)NCCC(=O)NCCSC(=O)/C=C/c1ccc(O)cc1 [4-coumaryl-CoA]
- HPLC-DAD / UPLC-Q-TOF-MS of E. coli culture extract [5]: providing a sufficient substrate for the catalytic reaction of SpCHS

SMILES: O=C(/C=C/c1ccc(O)cc1)c1c(O)cc(O)cc1O [NC, naringenin chalcone]
- HPLC-DAD / UPLC-Q-TOF-MS product detection [6]: naringenin chalcone was completely consumed in the sample group to generate naringenin

SMILES: O=C1C[C@@H](c2ccc(O)cc2)Oc2cc(O)cc(O)c21 [NG, naringenin]
- HPLC-DAD / UPLC-Q-TOF-MS product detection [7]: SpFNS produced apigenin from naringenin

SMILES: O=C(O)/C=C/c1ccccc1 [CiA, cinnamic acid]
- HPLC-DAD / UPLC-Q-TOF-MS product detection [8]: SpC4H was able to catalyze the production of 4-coumaric acid from cinnamic acid

SMILES: N[C@@H](Cc1ccccc1)C(=O)O [Phe, phenylalanine]
- HPLC-DAD / UPLC-Q-TOF-MS product detection [9]: SpPAL can catalyze the formation of cinnamic acid from phenylalanine

SMILES: O=c1cc(-c2ccc(O)cc2)oc2cc(O)c(O)c(O)c12 [SA, scutellarein]
- HPLC-DAD / UPLC-Q-TOF-MS product detection [10]: SpF6OMT1 and SpF6OMT2 converted scutellarein into hispidulin
- HPLC-DAD / UPLC-Q-TOF-MS product detection [11]: SpF6OMT1 and SpF6OMT2 converted scutellarein into hispidulin

Reference: PMC10461478, “The chemical profiling of Salvia plebeia during different growth periods and the biosynthesis of its main flavonoids ingredients” (Frontiers in Plant Science, 2023)
